Experimental data taken from US20170290821A1 (priority 2014, published 2017).
Counter-ions that a name gives are not always drawn. Like-named read-outs stand apart in the source and are kept apart here.

Tested on: influenza virus A/WSN RG#1-1 strains
Assay: microbe, parasite or virus in culture
Format: cell-based
Conditions: for IC50: unidentified influenza virus, WSN, read-out: IC50 (50% virus replication inhibitory concentration)

SMILES	IC50 (A549, 48 h)	IC50 (HEK293, 48 h)	IC50 (50% virus replication inhibitory concentration)	other results
N#C/C(=C\c1ccc(O)c(O)c1)C(=O)NCc1ccccc1 [Compound J4, (E)-N-benzyl-2-cyano-3-(3,4-dihydroxyphenyl)acrylamide]	31.6 µM	–	–	–
O=C(Nc1c[nH]nc1-c1nc2cc(CN3CCOCC3)ccc2[nH]1)NC1CC1 [Compound J7, 1-cyclopropyl-3-(3-(5-(morpholinomethyl)-1H-benzo[d]imidazol-2-yl)-1H-pyrazol-4-yl) urea]	3.16 µM	–	–	–
N#CCNC(=O)c1ccc(-c2ccnc(Nc3ccc(N4CCOCC4)cc3)n2)cc1 [Compound J8, N-(cyanomethyl)-4-(2-(4-morpholinophenylamino)pyrimidin-4-yl)benzamide]	–	31.6 µM	–	–
CN1CCN(c2cccc(Nc3nc4c(-c5ccc(S(C)(=O)=O)cc5)cccn4n3)c2)CC1 [Compound J11]	–	–	3.50 log10, nM	–
Fc1cc(-c2cccc3ncc(-c4cnn(C5CCNCC5)c4)nc23)cc(F)c1CN1CCOCC1 [Compound J13, 8-(3,5-difluoro-4-(morpholinomethyl)phenyl)-2-(1-(piperidin-4-yl)-1H-pyrazol-4-yl)qui noxaline]	–	–	3.17 log10, nM	–
CC(C)N(CCC(=O)c1ccc2ccccc2c1)Cc1ccccc1 [Compound J15, 1-propanone, 3-[(1-methylethyl)(phenylmethyl)amino]-1-(2-naphthalenyl)-, hydrochloride (1:1)]	–	0.316 µM	–	–
O=C(Nc1nc2cccc(-c3ccc(CN4CCS(=O)(=O)CC4)cc3)n2n1)C1CC1 [Compound J19, N-[5-[4-[(1,1-dioxido-4-thiomorpholinyl)methyl]phenyl][1,2,4]triazolo[1,5-a]pyridin-2-yl]cyclopropanccarboxamidc]	31.6 µM	31.6 µM	–	IC50 (MDCK, 48 h): 31.6 µM
COc1cc2ncnc(Nc3ccc(O)cc3)c2cc1OC [Compound J20, 4-[(6,7-dimethoxy-4-quinazolinyl)amino]-phenol]	–	31.6 µM	–	–
Cl.Cl.Fc1cc(-c2cccc3ncc(-c4cnn(C5CCNCC5)c4)nc23)cc(F)c1CN1CCOCC1 [Compound J21, 4-[[2,6-difluoro-4-[3-(1-piperidin-4-ylpyrazol-4-yl)quinoxalin-5-yl]phenyl]methyl]morpholine; dihydrochloride]	–	–	3.50 log10, nM	–
CN1C/C=C/CCOc2cccc(c2)-c2ccnc(n2)Nc2cccc(c2)C1 [Compound J23, 20-oxa-5,7,14,27-tetraazatetracyclo[19.3.1.12,6.18, 12]heptacosa-1(25),2,4,6(27),8,10,12(26),16,21,23-decane,14-methyl-]	0.0316 µM	0.0316 µM	–	IC50 (MDCK, 48 h): 0.0316 µM
CCC[C@H](NC(=O)/C(C#N)=C/c1cccc(Br)n1)c1ccccc1 [Compound J25, (2E)-3-(6-bromo-2-pyridinyl)-2-cyano-N-[1S-phenylbutyl]-2-propenamide]	–	–	2.50 log10, nM	–
